This assay concerns ACE activity in T-cells. In words: ACE activity in T-cells after administration of a protease inhibitor. Type of assay: cell-based.

Structures are written as SMILES.

For the molecule `CC(C)C[C@H](NC(=O)[C@@H](O)[C@H](N)Cc1ccccc1)C(=O)O` [bestatin], the “ACE activity in T-cells” value is “increased ACE activity”.

The values above are taken from US7022693B2, “Treatment of lipodystrophy” (Ark Therapeutics Ltd., priority 2001, dated 2006).
